Source: PubChem BioAssay (NCI)
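Briefly, cells in 96-well plates were exposed to five compound concentrations for 48 h, and endpoints were estimated by linear interpolation. GI50 = concentration required for 50% inhibition of growth. At the TGI there is no net growth.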

What was measured:
Experiment in all cases: growth of human tumour cells (NCI), 48 h
ACHN renal = test system: ACHN renal
CCRF-CEM leukemia = test system: CCRF-CEM leukemia
HCT-15 colon = test system: HCT-15 colon
HL-60(TB) leukemia = test system: HL-60(TB) leukemia
HT29 colon = test system: HT29 colon
KM12 colon = test system: KM12 colon
MCF7 breast = test system: MCF7 breast
NCI/ADR-RES ovarian = test system: NCI/ADR-RES ovarian
OVCAR-3 ovarian = test system: OVCAR-3 ovarian
OVCAR-5 ovarian = test system: OVCAR-5 ovarian
SF-539 CNS = test system: SF-539 CNS
SK-MEL-28 melanoma = test system: SK-MEL-28 melanoma
SK-MEL-5 melanoma = test system: SK-MEL-5 melanoma
SK-OV-3 ovarian = test system: SK-OV-3 ovarian
UACC-257 melanoma = test system: UACC-257 melanoma
A498 renal = test system: A498 renal
LOX IMVI melanoma = test system: LOX IMVI melanoma
SN12C renal = test system: SN12C renal
T-47D breast = test system: T-47D breast

| SMILES | TGI (ACHN renal) [µM] | TGI (CCRF-CEM leukemia) [µM] | TGI (HCT-15 colon) [µM] | TGI (HL-60(TB) leukemia) [µM] | TGI (HT29 colon) [µM] | TGI (KM12 colon) [µM] | TGI (MCF7 breast) [µM] | TGI (NCI/ADR-RES ovarian) [µM] | TGI (OVCAR-3 ovarian) [µM] | TGI (OVCAR-5 ovarian) [µM] | TGI (SF-539 CNS) [µM] | TGI (SK-MEL-28 melanoma) [µM] | TGI (SK-MEL-5 melanoma) [µM] | TGI (SK-OV-3 ovarian) [µM] | TGI (UACC-257 melanoma) [µM] | TGI (A498 renal) [µM] | TGI (LOX IMVI melanoma) [µM] | TGI (SN12C renal) [µM] | TGI (T-47D breast) [µM] | GI50 (HL-60(TB) leukemia) [µM] |
| --- | --- | --- | --- | --- | --- | --- | --- | --- | --- | --- | --- | --- | --- | --- | --- | --- | --- | --- | --- | --- |
| Cc1cc(NS(=O)(=O)c2ccc(N=Nc3c(O)c(C(=O)O)cc4ccccc34)cc2)nc(C)n1 | > 100 | > 100 | > 100 | > 100 | > 100 | > 100 | > 100 | > 100 | > 100 | > 100 | > 100 | > 100 | > 100 | > 100 | > 100 | – | – | – | – | – |
| CC(C)CCN=c1cc2n(-c3ccc(Cl)cc3)c3ccccc3nc-2cc1Nc1ccc(Cl)cc1 | – | > 91 | 23.2 | 11.1 | 19.8 | > 41.2 | > 42 | 28.6 | 6.61 | 35.3 | 32.1 | > 82.8 | 25.3 | 70.2 | 19.7 | 48.5 | 8.03 | 58.1 | – | – |
| CCOCNC(=O)N(COCC)COCC | > 100 | > 100 | > 100 | > 100 | > 100 | > 100 | – | – | > 100 | > 100 | > 100 | > 100 | – | > 100 | > 100 | > 100 | > 100 | > 100 | – | – |
| CC(=O)[C@]1(O)Cc2c(O)c3c(c(O)c2C(OC2OC(C)C(O)C(O)C2F)C1)C(=O)c1ccccc1C3=O (some centres not stated) | – | 0.0642 | – | < 0.0303 | – | 5.64 | > 45.2 | 3.78 | 6.64 | 1.31 | 0.374 | 2.7 | 0.68 | 45.9 | 2.38 | 0.398 | 11.6 | 12.4 | 7.8 | – |
| COc1ccc2c(c1)CCCc1cn[nH]c1-2 | – | > 100 | > 100 | > 100 | > 100 | > 100 | > 100 | > 100 | > 100 | > 100 | > 100 | > 100 | > 100 | > 100 | > 100 | > 100 | > 100 | > 100 | – | – |
| C[N+](C)(N)CCC[N+](C)(C)N | > 100 | > 100 | > 100 | > 100 | > 100 | > 100 | > 100 | > 100 | > 100 | > 100 | > 100 | > 100 | > 100 | > 100 | > 100 | > 100 | > 100 | > 100 | > 100 | – |
| O=c1c2ccccc2nnn1-c1n[nH]c2ccccc12 | > 100 | > 100 | > 100 | – | > 100 | > 100 | > 100 | > 100 | > 100 | > 100 | > 100 | > 100 | > 100 | – | > 100 | > 100 | – | > 100 | > 100 | – |
| CC[N+](C)(CC)Cc1ccccc1[N+](=O)[O-] | > 100 | > 100 | > 100 | > 100 | > 100 | > 100 | > 100 | > 100 | 73.7 | > 100 | > 100 | > 100 | > 100 | > 100 | > 100 | > 100 | > 100 | > 100 | > 100 | – |
| CC[C@]12C=CCN3CC[C@@]4(c5ccc(OC)cc5N(C)[C@H]4[C@@](O)(C(=O)OC)[C@@H]1OC(C)=O)[C@@H]32 | – | > 200 | > 63.2 | > 200 | > 200 | > 200 | > 200 | > 200 | > 112 | > 200 | > 200 | > 200 | > 200 | > 200 | > 200 | > 200 | > 200 | > 200 | – | – |
| COc1ccc(-c2c(C#N)c(NC(=S)NC(=O)c3ccccc3)nc3c2CCCC3)cc1OC | > 100 | > 100 | > 100 | > 100 | > 100 | > 100 | > 100 | > 100 | > 100 | > 100 | > 100 | > 100 | > 100 | > 100 | > 100 | – | > 100 | > 100 | 89 | – |
| Cc1cc(C)cc(Nc2nnc3n2S(=O)(=O)c2cc(C#N)c(Cl)cc2S3)c1 | 10.7 | 4.32 | 8.16 | 19.4 | 4.98 | 4.46 | 6.56 | 6.51 | 3.34 | 9.55 | 3.97 | 14.2 | 20.7 | 21.9 | 3.32 | 31.4 | 9.03 | 7.15 | 31.6 | – |
| CC(=O)OC[C@H]1[C@@H]2C(CC[C@]13CO3)OC(=O)CC(C)[C@]2(C)CCc1ccoc1 (some centres not stated) | > 100 | > 100 | > 100 | > 100 | > 100 | > 100 | > 100 | > 100 | > 100 | > 100 | > 100 | > 100 | > 100 | > 100 | > 100 | > 100 | > 100 | > 100 | > 100 | – |
| CN(CCCNc1ccc2ncn3c4ccccc4c(=O)c1c23)CCCN1C(=O)c2cccc3cc([N+](=O)[O-])cc(c23)C1=O | 1.21 | 0.973 | 0.326 | – | 0.0155 | 1.36 | 0.114 | 1.69 | 2.29 | 2.35 | 0.149 | 2.86 | – | 2.69 | 2.1 | 4.53 | – | 1.78 | 3.42 | 0.191 |
| O=C(NCCCNC(=O)c1ccc2cc(O)c(O)cc2c1)c1ccc2cc(O)c(O)cc2c1 | > 100 | 66.3 | > 100 | 59.7 | 81.2 | > 100 | > 100 | > 100 | – | > 100 | 35.6 | > 100 | 48.4 | – | > 100 | > 100 | 67.4 | – | 90.6 | – |
| Oc1ccc2ccccc2c1N=Nc1ccc(F)cc1 | > 100 | > 100 | > 100 | > 100 | > 100 | > 100 | – | – | > 100 | > 100 | > 100 | > 100 | > 100 | > 100 | – | > 100 | > 100 | > 100 | – | – |
| NCCc1nc(-c2nc(C(=O)O)cs2)cs1 | > 100 | > 100 | > 100 | > 100 | > 100 | > 100 | > 100 | > 100 | > 100 | > 100 | > 100 | > 100 | > 100 | > 100 | > 100 | > 100 | > 100 | > 100 | > 100 | – |
| COC(=O)C1(c2ccc(N(C)C)cc2OC)CCCN(C(=O)Oc2ccccc2[N+](=O)[O-])CCc2c1[nH]c1ccccc21 (configuration not stated) | – | – | – | > 100 | > 100 | > 100 | > 100 | > 100 | > 100 | > 100 | > 100 | > 100 | > 100 | > 100 | > 100 | > 100 | > 100 | > 100 | > 100 | – |
| O=[N+]([O-])c1ccccc1N=Nc1c(O)sc2ccccc12 | > 100 | > 100 | > 100 | > 100 | > 100 | > 100 | > 100 | – | > 100 | > 100 | > 100 | > 100 | > 100 | > 100 | > 100 | > 100 | > 100 | – | > 100 | – |
